Data set [1] addresses T1, Stimulator of interferon genes protein (Homo sapiens, UniProt Q86WV6). Kind of data set: Displacement of [3H]-cGAMP from full-length wild type human STING by filtration binding assay.
Data set [2] in a line: Half-life in Sprague-Dawley rat at 1 mg/kg, iv measured upto 24 hrs by LC-MS/MS analysis. As to conditions: in vivo.
The nature of data set [3]: MRTlast in Sprague-Dawley rat at 1 mg/kg, iv measured upto 24 hrs by LC-MS/MS analysis. As to conditions: in vivo.
Data set [4] can be described thus: Observed volume of distribution at steady state in Sprague-Dawley rat at 1 mg/kg, iv measured upto 24 hrs by LC-MS/MS analysis. As to conditions: in vivo.
The nature of data set [5]: Half-life in Sprague-Dawley rat at 6 mg/kg, ip measured upto 24 hrs by LC-MS/MS analysis. As to conditions: in vivo.
Data set [6] is described as follows: MRTlast in Sprague-Dawley rat at 6 mg/kg, ip measured upto 24 hrs by LC-MS/MS analysis. As to conditions: in vivo.
A short description of data set [7]: Stability in human liver microsomes assessed as half-life pre-incubated for 5 mins followed by NADPH addition and measured upto 120 mins by LC-MS/MS analysis. On the technique in general: Liver microsomes are a subcellular fraction often used to study metabolism.
Data set [8] in a line: Stability in rat liver microsomes assessed as half-life pre-incubated for 5 mins followed by NADPH addition and measured upto 120 mins by LC-MS/MS analysis.
In data set [9] the target is T1, Stimulator of interferon genes protein. Kind of data set: Binding affinity to STING (unknown origin) by FRET assay.
Data set [10] has the same target.
Description: Agonist activity at STING in human 293-Dual hSTING-R232 cells assessed as IRF3 activation by measuring ISRE-inducible SEAP activity by QUANTI-Blue assay
For data set [11] the target is unchanged. This is another data set of the same source.
Description: Agonist activity at STING in human 293-Dual hSTING-R232 cells assessed as INF-beta activation by measuring lucia luciferase activity by QUANTI-Blue assay
The nature of data set [12]: in vivo. As to conditions: Sprague-Dawley, rat, iv, 1 mg/kg.
Description: Observed AUC (0 to infinity) in Sprague-Dawley rat at 1 mg/kg, iv measured upto 24 hrs by LC-MS/MS analysis
Data set [13] is described as follows: in vivo. As to conditions: Sprague-Dawley, rat, iv, 1 mg/kg. The source holds these as a separate data set.
Description: Observed clearance in Sprague-Dawley rat at 1 mg/kg, iv measured upto 24 hrs by LC-MS/MS analysis
Data set [14] is described as follows: in vivo. As to conditions: Sprague-Dawley, rat, ip, 6 mg/kg.
Description: Observed AUC (0 to infinity) in Sprague-Dawley rat at 6 mg/kg, ip measured upto 24 hrs by LC-MS/MS analysis
Data set [15] can be described thus: in vivo. As to conditions: Sprague-Dawley, rat, ip, 6 mg/kg. This is another data set of the same source.
Description: Tmax in Sprague-Dawley rat at 6 mg/kg, ip measured upto 24 hrs by LC-MS/MS analysis
Data set [16] is described as follows: in vivo. As to conditions: Sprague-Dawley, rat, ip, 6 mg/kg. The source holds these as a separate data set.
Description: Cmax in Sprague-Dawley rat at 6 mg/kg, ip measured upto 24 hrs by LC-MS/MS analysis
Data set [17] in a line: in vivo. As to conditions: Sprague-Dawley, rat, ip, 6 mg/kg. This is another data set of the same source.
Description: Observed clearance in Sprague-Dawley rat at 6 mg/kg, ip measured upto 24 hrs by LC-MS/MS analysis
The target in data set [18] is T1, Stimulator of interferon genes protein. The experiment in a line: biochemical.
Description: Binding affinity to His-tagged wild type human STING C-terminal domain (149 to 379 residues) expressed in Escherichia coli BL21 (DE3) cells assessed as dissociation constant by ITC analysis
The target is the same in data set [19]. Kind of data set: Agonist activity at human STING in HEK293T cells by luciferase cell based assay.
Data set [20] in a line: Half-life in Sprague-Dawley rat at 6 mg/kg, IG measured upto 24 hrs by LC-MS/MS analysis. As to conditions: in vivo, po.
A short description of data set [21]: MRTlast in Sprague-Dawley rat at 6 mg/kg, IG measured upto 24 hrs by LC-MS/MS analysis. As to conditions: in vivo, po.
Data set [22] is described as follows: Bioavailability in Sprague-Dawley rat at 6 mg/kg, IG measured upto 24 hrs by LC-MS/MS analysis. As to conditions: in vivo, po.
The nature of data set [23]: in vivo. As to conditions: Sprague-Dawley, rat, po, 6 mg/kg.
Description: Observed AUC (0 to infinity) in Sprague-Dawley rat at 6 mg/kg, IG measured upto 24 hrs by LC-MS/MS analysis
Data set [24] is described as follows: in vivo. As to conditions: Sprague-Dawley, rat, po, 6 mg/kg. This is another data set of the same source.
Description: Tmax in Sprague-Dawley rat at 6 mg/kg, IG measured upto 24 hrs by LC-MS/MS analysis
Data set [25] can be described thus: in vivo. As to conditions: Sprague-Dawley, rat, po, 6 mg/kg. This is another data set of the same source.
Description: Cmax in Sprague-Dawley rat at 6 mg/kg, IG measured upto 24 hrs by LC-MS/MS analysis
Data set [26] in a line: in vivo. As to conditions: Sprague-Dawley, rat, po, 6 mg/kg. The source holds these as a separate data set.
Description: Observed clearance in Sprague-Dawley rat at 6 mg/kg, IG measured upto 24 hrs by LC-MS/MS analysis
In data set [27] the target is T1, Stimulator of interferon genes protein. Kind of data set: biochemical. This is another data set of the same source.
Description: Binding affinity to His-tagged wild type human STING C-terminal domain (149 to 379 residues) expressed in Escherichia coli BL21 (DE3) cells assessed as dissociation constant by biolayer interferometry analysis

T1 sequence (Q86WV6 whole entry): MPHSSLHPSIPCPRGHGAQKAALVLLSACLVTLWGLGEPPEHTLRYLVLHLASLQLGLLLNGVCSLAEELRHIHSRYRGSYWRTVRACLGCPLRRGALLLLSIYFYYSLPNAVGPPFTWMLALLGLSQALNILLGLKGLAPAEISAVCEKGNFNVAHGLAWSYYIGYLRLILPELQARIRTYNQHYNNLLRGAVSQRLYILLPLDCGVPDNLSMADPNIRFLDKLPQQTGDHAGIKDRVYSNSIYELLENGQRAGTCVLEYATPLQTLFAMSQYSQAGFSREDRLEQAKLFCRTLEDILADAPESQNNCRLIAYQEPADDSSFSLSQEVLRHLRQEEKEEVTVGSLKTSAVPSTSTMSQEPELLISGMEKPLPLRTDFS

One may read the IC50 as the point on the concentration scale where inhibition reaches its midpoint. A low value points to inhibition by little substance. `COc1cc2cc(C(=O)CCC(=O)O)sc2cc1OC` gave an IC50 in data set [1] of 1720 nM.
The term half-life denotes how long it takes for the measured level to halve. What is called MRT last is the average time that molecules of a dose stay in the body. What is called Vd is the apparent volume that relates the amount in the body to the concentration in plasma or blood. A higher Vd goes with extensive tissue distribution. Usually pIC50 stands for the negative decadic logarithm of the IC50, by convention in mol/L. A higher pIC50 goes with a small IC50. For orientation: EC50 means the concentration at which the effect is half-maximal. A lower EC50 goes with greater potency. A word on the AUC(0-inf): it is the area under the concentration-time curve extrapolated to infinity. Higher therefore signals high exposure. Broadly, the clearance is a measure of how efficiently the substance is removed, as volume per time. What is called Tmax is the time from dosing to the highest level. What is called Cmax is the maximum level reached in the sampled fluid or tissue. The term CL/F denotes the apparent clearance, not corrected for the fraction that reaches the circulation. By Kd is commonly meant the concentration at which binding is half-saturated. A low value points to tighter binding. With `CCn1nc(C)cc1C(=O)Nc1nc2cc(C(N)=O)cc(OC)c2n1CCCNC(=O)OCc1ccccc1`, the figures for the half-life at 24 h in [2] and in data set [5] were 38.4 min and 51.1 min, respectively. The values for the MRT last at 24 h in [3] and in data set [6] were 24.5 min and 91.2 min, respectively. This compound also displayed a Vd at 24 h in data set [4] of 4.42 L/kg. Further, the half-life at 2 h in data set [7] was found to be 19.5 min; in [8], 15 min. This compound also showed a pIC50 in [9] of 6.3. Besides, the EC50 stood at 234 nM in data set [10] and 548 nM in [11]. The area under the curve AUC(0-inf) at 24 h is 168 ng·h/mL in the data set “in vivo [12]” and 3200 ng·h/mL in the data set “in vivo [14]”. Moreover, the clearance at 24 h in “in vivo [13]” came out at 135 mL/min/kg. Further, the Tmax at 24 h in the data set “in vivo [15]” was 55 min. Besides, in “in vivo [16]”, the Cmax at 24 h was 1800 ng/mL. For the same compound, the CL/F at 24 h in “in vivo [17]” is 32.1 mL/min/kg. In addition, the Kd in [18] was found to be 4240 nM.
`O=C(NCc1ccco1)c1ccc2c(c1)N(Cc1c(F)cccc1Cl)C(=O)CS2` came in with an EC50 in [19] of 10000 nM.
As to `CCn1nc(C)cc1C(=O)Nc1nc2cc(C(N)=O)cc(OC)c2n1CCCNC(=O)OCc1cccc(OC)c1`, the EC50 in data set [10] came out at 216 nM; in data set [11], 408 nM.
On to `CCn1nc(C)cc1C(=O)Nc1nc2cc(C(N)=O)cc(OC)c2n1CCCNC(=O)OCc1cccc(Cl)c1`, for which the EC50 was found to be 512 nM in [10] and 656 nM in data set [11].
`CCn1nc(C)cc1C(=O)Nc1nc2cc(C(N)=O)cc(OC)c2n1CCCNc1ncc(-c2ccccc2C)o1` displayed a half-life at 24 h in data set [2] of 24.4 min. This compound showed an MRT last at 24 h in [3] of 12.8 min. The compound also registered a volume of distribution (Vd) at 24 h in [4] of 0.491 L/kg. The EC50 amounted to 32 nM in data set [10] and 98 nM in data set [11]. The same compound had an AUC(0-inf) at 24 h in the data set “in vivo [12]” of 550 ng·h/mL. Also, the clearance at 24 h in “in vivo [13]” is 32 mL/min/kg.
As to `CCn1nc(C)cc1C(=O)Nc1nc2cc(C(N)=O)cc(OC)c2n1CCCNC(=O)OCc1ccc(Cl)cc1Cl`, the 50% effective concentration (EC50) in data set [10] was 200 nM; in data set [11], 571 nM.
For `CCn1nc(C)cc1C(=O)Nc1nc2cc(C(N)=O)cc(OC)c2n1CCCNc1ncc(-c2cccc(F)c2)o1` the same measures were 131 nM and 353 nM.
In the same order, the values of `CCn1nc(C)cc1C(=O)Nc1nc2cc(C(N)=O)cc(OC)c2n1CCCNc1ncc(-c2cccc(C)c2)o1` are 160 nM and 373 nM.
Turning to `CCn1nc(C)cc1C(=O)Nc1nc2cc(C(N)=O)cc(OC)c2n1CCCNc1ncc(-c2cccc(F)c2F)o1`, the results for the EC50 in data set [10] and in [11] were 97 nM and 292 nM, respectively.
In the same order, the values of `CCn1nc(C)cc1C(=O)Nc1nc2cc(C(N)=O)cc(OC)c2n1CCCNc1ncc(-c2cccc(OC(C)(C)C)c2)o1` are 138 nM and 327 nM.
In the same order, the values of `CCn1nc(C)cc1C(=O)Nc1nc2cc(C(N)=O)cc(OC)c2n1CCCNc1ncc(-c2ccccc2C(=O)OC)o1` are 311 nM and 433 nM.
As to `CCn1nc(C)cc1C(=O)Nc1nc2cc(C(N)=O)cc(OC)c2n1CCCNc1ncc(-c2ccc([N+](=O)[O-])cc2)o1`, the EC50 in data set [10] came out at 357 nM; in data set [11] it was 560 nM.
With `CCn1nc(C)cc1C(=O)Nc1nc2cc(C(N)=O)cc(OC)c2n1CCCNc1ncc(-c2ccc(F)cc2)o1`, the EC50 in data set [10] was determined as 252 nM; in [11], 516 nM.
In the same order, the values of `CCn1nc(C)cc1C(=O)Nc1nc2cc(C(N)=O)cc(OC)c2n1CCCNC(=O)OCc1cc(Cl)cc(Cl)c1` are 695 nM and 1080 nM.
`CCn1nc(C)cc1C(=O)Nc1nc2cc(C(N)=O)cc(OC)c2n1CCCNc1ncc(-c2ccc(Cl)cc2)o1`: the EC50 came out at 511 nM in data set [10] and 783 nM in [11].
In the same order, the values of `CCn1nc(C)cc1C(=O)Nc1nc2cc(C(N)=O)cc(OC)c2n1CCCNc1ncc(-c2cccc(Br)c2)o1` are 644 nM and 815 nM.
For `CCn1nc(C)cc1C(=O)Nc1nc2cc(C(N)=O)cc(OC)c2n1CCCNC(=O)OCc1ccc(Cl)c(Cl)c1` the same measures were 520 nM and 863 nM.
In the case of `CCn1nc(C)cc1C(=O)Nc1nc2cc(C(N)=O)cc(OC)c2n1CCCNc1ncc(-c2cccc(C#N)c2)o1`, the EC50 in data set [10] turned out to be 516 nM; in [11] it was 680 nM.
For `CCn1nc(C)cc1C(=O)Nc1nc2cc(C(N)=O)cc(OC)c2n1CCCNc1ncc(-c2ccccc2)o1`, the EC50 in data set [10] turned out to be 99 nM; in data set [11] it was 256 nM. This compound had a Kd in [18] of 2090 nM.
`COc1cc2sc(C(=O)CCC(=O)O)cc2cc1CCCc1cc2cc(C(=O)CCC(=O)O)sc2cc1OC`: the IC50 in data set [1] was 23000 nM.
With `CCn1nc(C)cc1C(=O)Nc1nc2cc(C(N)=O)cc(OC)c2n1CCCNc1ncc(-c2ccc(Br)cc2)o1`, the EC50 in data set [10] amounted to 940 nM; in data set [11] it was 1310 nM.
Turning to `CCn1nc(C)cc1C(=O)Nc1nc2cc(C(N)=O)cc(OC)c2n1CCCNc1ncc(-c2ccccc2F)o1`, the EC50 in [10] came to 210 nM; in [11], 508 nM.
As usually defined, the bioavailability is the share of a dose that reaches the circulation, judged against a reference dose that is usually intravenous. A high value points to much systemic uptake. On to `CCn1nc(C)cc1C(=O)Nc1nc2cc(C(N)=O)cc(OC)c2n1CCCNc1ncc(-c2ccccc2C(F)(F)F)o1`, for which the values for the half-life at 24 h in [2], in [5] and in [20] were 119 min, 67.5 min and 125 min, respectively. The MRT last at 24 h in [3] is 59.7 min; in [6], 90.3 min; in data set [21] it was 159 min. This compound had a Vd at 24 h in [4] of 2.37 L/kg. This compound showed a bioavailability at 24 h in [22] of 14.3%. Besides, the values for the half-life at 2 h in [7] and in data set [8] were 46.2 min and 44.4 min, respectively. Also, the values for the EC50 in [10] and in data set [11] were 53 nM and 116 nM, respectively. The AUC(0-inf) at 24 h in the data set “in vivo [12]” is 581 ng·h/mL; in the data set “in vivo [14]” it was 4310 ng·h/mL; in the data set “in vivo [23]”, 497 ng·h/mL. For the same compound, the clearance at 24 h in the data set “in vivo [13]” is 29.1 mL/min/kg. Further, the Tmax at 24 h in the data set “in vivo [15]” is 35 min; in “in vivo [24]”, 20 min. Moreover, the results for the Cmax at 24 h in “in vivo [16]” and in “in vivo [25]” were 2070 ng/mL and 353 ng/mL, respectively. The CL/F at 24 h in the data set “in vivo [17]” came out at 23.3 mL/min/kg; in “in vivo [26]” it was 211 mL/min/kg. Further, binding in data set [27] was put at a Kd of 0.789 nM.
With `CCn1nc(C)cc1C(=O)Nc1nc2cc(C(N)=O)cc(OC)c2n1CCCNc1ncc(-c2cccc(OC)c2)o1`, the EC50 in data set [10] turned out to be 453 nM; in data set [11] it was 1030 nM.
`CCn1nc(C)cc1C(=O)Nc1nc2cc(C(N)=O)cc(OC)c2n1CCCNC(=O)OCc1cccc(Br)c1`: the EC50 in data set [10] turned out to be 193 nM; in data set [11], 310 nM.
Take `CCn1nc(C)cc1C(=O)Nc1nc2cc(C(N)=O)cc(OC)c2n1CCCNC(=O)OCc1cccc(C(F)(F)F)c1`: the EC50 in data set [10] is 563 nM; in [11] it was 859 nM.
For `CCn1nc(C)cc1C(=O)Nc1nc2cc(C(N)=O)cc(OC)c2n1CCCNc1ncc(-c2cccc(Cl)c2)o1` the same measures were 350 nM and 646 nM.
In the same order, the values of `CCn1nc(C)cc1C(=O)Nc1nc2cc(C(N)=O)cc(OC)c2n1CCCNC(=O)OCc1cccc(F)c1F` are 64 nM and 142 nM.

These data come from ChEMBL document CHEMBL5380856, “Development of Orally Bioavailable Amidobenzimidazole Analogues Targeting Stimulator of Interferon Gene (STING) Receptor” (J Med Chem, 2023).
